Source: US20220298163A1, “BTK INHIBITORS WITH IMPROVED DUAL SELECTIVITY” (BEIGENE, LTD., priority 2017, published 2022)

Each molecule was assayed against T1, Btk kinase (aa2-659, Carna Biosciences) (Homo sapiens, UniProt Q06187) (assay: Btk kinase enzymatic assay (TR-FRET)). Settings: TR-FRET, 30 μM ATP, compound incubated with kinase 60 minutes.
T1 construct: purchased Carna Biosciences
Format: biochemical

T1 sequence (Q06187 2-659): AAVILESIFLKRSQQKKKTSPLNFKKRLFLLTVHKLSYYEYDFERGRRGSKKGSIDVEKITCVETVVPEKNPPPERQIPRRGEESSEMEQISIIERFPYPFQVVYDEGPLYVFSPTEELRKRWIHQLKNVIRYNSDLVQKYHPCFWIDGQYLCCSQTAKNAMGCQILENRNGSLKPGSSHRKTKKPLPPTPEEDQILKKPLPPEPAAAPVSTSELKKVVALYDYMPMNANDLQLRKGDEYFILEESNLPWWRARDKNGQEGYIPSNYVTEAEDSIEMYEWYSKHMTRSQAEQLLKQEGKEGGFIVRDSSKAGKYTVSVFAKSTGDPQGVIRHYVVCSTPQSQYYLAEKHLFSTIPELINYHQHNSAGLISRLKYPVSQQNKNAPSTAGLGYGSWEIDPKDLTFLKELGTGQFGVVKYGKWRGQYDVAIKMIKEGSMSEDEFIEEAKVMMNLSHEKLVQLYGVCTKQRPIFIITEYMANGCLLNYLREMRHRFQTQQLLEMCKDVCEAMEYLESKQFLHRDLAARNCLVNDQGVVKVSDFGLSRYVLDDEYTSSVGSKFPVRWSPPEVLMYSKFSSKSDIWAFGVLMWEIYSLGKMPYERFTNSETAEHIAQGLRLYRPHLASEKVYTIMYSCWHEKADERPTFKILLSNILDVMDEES

IC50 | SMILES
41 nM | C=CC(=O)N1CCC(C2CCNc3c(C(N)=O)c(-c4cc(OC)cc(OC)c4)nn32)CC1 (stereo not shown) [Example A9, 7-(1-acryloylpiperidin-4-yl)-2-(3,5-dimethoxyphenyl)-4,5,6,7-tetrahydropyrazolo[1,5-a]pyrimidine-3-carboxamide]
51 nM | C=CC(=O)N1CCC(C2CCNc3c(C(N)=O)c(-c4cc(OC)c(-c5ccccc5)c(OC)c4)nn32)CC1 (stereo not shown) [Example A10, 7-(1-acryloylpiperidin-4-yl)-2-(2,6-dimethoxy-[1,1′-biphenyl]-4-yl)-4,5,6,7-tetrahydropyrazolo[1,5-a]pyrimidine-3-carboxamide]
> 100 nM | C=CC(=O)N1CCC(C2CCNc3c(C(N)=O)c(-c4cc(OCC)c(C)c(OCC)c4)nn32)CC1 (stereo not shown) [Example A13, 7-(1-acryloylpiperidin-4-yl)-2-(3,5-diethoxy-4-methylphenyl)-4,5,6,7-tetrahydropyrazolo[1,5-a]pyrimidine-3-carboxamide]
28 nM | C=CC(=O)N1CCC(C2CCNc3c(C(N)=O)c(-c4cc(Cl)c(C5CC5)c(Cl)c4)nn32)CC1 (stereo not shown) [Example A24, 7-(1-acryloylpiperidin-4-yl)-2-(3,5-dichloro-4-cyclopropylphenyl)-4,5,6,7-tetrahydropyrazolo[1,5-a]pyrimidine-3-carboxamide]
41 nM | C=CC(=O)N1CCC(C2CCNc3c(C(N)=O)c(-c4cc(Cl)c(Br)c(OC(F)(F)F)c4)nn32)CC1 (stereo not shown) [Example A26, 7-(1-acryloylpiperidin-4-yl)-2-(4-bromo-3-chloro-5-(trifluoromethoxy)phenyl)-4,5,6,7-tetrahydropyrazolo[1,5-a]pyrimidine-3-carboxamide]
> 100 nM | C=CC(=O)N1CCC(C2CCNc3c(C(N)=O)c(-c4cc(OC)c(-c5c(C)noc5C)c(OC)c4)nn32)CC1 (stereo not shown) [Example A31, 7-(1-acryloylpiperidin-4-yl)-2-(4-(3,5-dimethylisoxazol-4-yl)-3-dimethoxyphenyl)-4,5,6,7-tetrahydropyrazolo[1,5-a]pyrimidine-3-carboxamide]
52 nM | C=CC(=O)N1CCC(C2CCNc3c(C(N)=O)c(-c4cc(OC)c(C5CCOCC5)c(OC)c4)nn32)CC1 (stereo not shown) [Example A32, 7-(1-acryloylpiperidin-4-yl)-2-(3,5-dimethoxy-4-(tetrahydro-2H-pyran-4-yl)phenyl)-4,5,6,7-tetrahydropyrazolo[1,5-a]pyrimidine-3-carboxamide]
16 nM | C=CC(=O)N1CCC(C2CCNc3c(C(N)=O)c(-c4cc(Cl)c(C5CC5)c(OCC)c4)nn32)CC1 (stereo not shown) [Example A48, 7-(1-acryloylpiperidin-4-yl)-2-(3-chloro-4-cyclopropyl-5-ethoxyphenyl)-4,5,6,7-tetrahydropyrazolo[1,5-a]pyrimidine-3-carboxamide]
18 nM | C=CC(=O)N1CCC(C2CCNc3c(C(N)=O)c(-c4cc(Cl)c(C)c(OCC)c4)nn32)CC1 (stereo not shown) [Example A49, 7-(1-acryloylpiperidin-4-yl)-2-(3-chloro-5-ethoxy-4-methylphenyl)-4,5,6,7-tetrahydropyrazolo[1,5-a]pyrimidine-3-carboxamide]

What follows are molecules tested against T2, Tec (Homo sapiens, UniProt P42680) (assay: Biochemical kinase selectivity: IC50 determination of Tec). Settings: TR-FRET, 280 μM ATP.
T2 sequence (P42680 1-631): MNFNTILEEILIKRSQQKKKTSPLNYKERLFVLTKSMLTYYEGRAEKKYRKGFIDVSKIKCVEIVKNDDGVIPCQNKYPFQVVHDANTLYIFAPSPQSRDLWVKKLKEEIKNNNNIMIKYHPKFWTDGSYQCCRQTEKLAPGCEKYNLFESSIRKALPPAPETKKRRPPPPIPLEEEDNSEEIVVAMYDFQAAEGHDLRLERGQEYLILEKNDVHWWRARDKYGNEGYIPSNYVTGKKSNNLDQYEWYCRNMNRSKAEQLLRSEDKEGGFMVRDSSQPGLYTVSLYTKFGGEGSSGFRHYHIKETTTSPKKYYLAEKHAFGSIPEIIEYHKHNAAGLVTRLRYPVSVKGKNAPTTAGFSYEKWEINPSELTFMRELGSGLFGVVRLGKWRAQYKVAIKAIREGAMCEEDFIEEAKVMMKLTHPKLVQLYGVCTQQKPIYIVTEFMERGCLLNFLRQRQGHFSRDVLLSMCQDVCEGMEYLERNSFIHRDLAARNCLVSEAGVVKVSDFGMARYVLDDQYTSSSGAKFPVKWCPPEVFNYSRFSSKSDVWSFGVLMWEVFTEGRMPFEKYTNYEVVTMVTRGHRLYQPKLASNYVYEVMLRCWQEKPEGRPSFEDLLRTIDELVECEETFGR

IC50 | SMILES
491 nM | C=CC(=O)N1CCC(C2CCNc3c(C(N)=O)c(-c4ccccc4)nn32)CC1 (stereo not shown) [Example 144, reference compound]
> 1000 nM | C=CC(=O)N1CCC(C2CCNc3c(C(N)=O)c(-c4cc(OC)c(OC)c(OC)c4)nn32)CC1 (stereo not shown) [Example A14, 7-(1-acryloylpiperidin-4-yl)-2-(3,4,5-trimethoxyphenyl)-4,5,6,7-tetrahydropyrazolo[1,5-a]pyrimidine-3-carboxamide]
136 nM | C=CC(=O)N1CCC(C2CCNc3c(C(N)=O)c(-c4cc(OC)c(C=C)c(OC)c4)nn32)CC1 (stereo not shown) [Example A51, 7-(1-acryloylpiperidin-4-yl)-2-(3,5-dimethoxy-4-vinylphenyl)-4,5,6,7-tetrahydropyrazolo[1,5-a]pyrimidine-3-carboxamide]

Same assay, conditions: ratio of IC50 values

Fold of Tec/Btk | SMILES
3.5 fold | C=CC(=O)N1CCC(C2CCNc3c(C(N)=O)c(-c4ccccc4)nn32)CC1 (stereo not shown) [Example 144, reference compound]
